Reference: ChEMBL document CHEMBL1140028, “Heterocyclic alpha-helix mimetics for targeting protein-protein interactions” (Bioorg Med Chem Lett, 2007)
The source made the active and inactive calls. The calls are words filed in the database; no cut-off is given here.

test system: Bcl-XL (Homo sapiens); assay: Binding affinity to Bcl-XL by fluorescence polarization assay

Activity, active:
CC(C)Cc1cc(-c2nc(C(C)C)co2)nnc1-c1nc(C(C)C)co1
CC(C)Cc1cc(C(=O)N2CCC[C@@H](OCc3ccccc3)C2)nnc1-c1nc(C(C)C)co1
CC(C)c1coc(-c2cc(CC3CCCCC3)c(-c3nc(C(C)C)co3)nn2)n1
CCC(C)C1CN(C(=O)c2cc(Cc3ccccc3)c(-c3nc(CC(C)C)co3)nn2)CCN1C (centres undefined)
